Reference: article PMC5545217 (Nature Communications, 2017)
Where two headings read alike, the source gives them in different places.

Tests used:
[1] = biological target: T1, M. tuberculosis ATP-PRT (Mycobacterium tuberculosis, UniProt P9WMN1); experiment: biochemical
[2] = biological target: T2, ATP-PRT (Mycobacterium tuberculosis, UniProt P9WMN1)
[3] = biological target: T2, ATP-PRT; experiment: Competition saturation transfer difference (STD) NMR; type: binding; details: 20 μM ATP-PRT, 400 μM TIH, L-His 0-3000 μM, pH 8.0
Protocol: NMR spectra were recorded at 25 °C on a Bruker Avance-600 spectrometer equipped with a triple resonance cryo-probe and operating at a ^1H frequency of 600 MHz. […] Spectra with on-resonance pre-saturation of the enzyme at 0.8 ppm were recorded with a saturation time of 2 s. An off-resonance control spectrum was recorded with a saturation time of 2 s. Water suppression was achieved by excitation sculpting. Data processing and spectral subtractions were performed using Bruker TopSpin 3.2 software.

[4] = biological target: T1, M. tuberculosis ATP-PRT; details: cited from earlier work
[5] = biological target: the molecule itself; experiment: crystal structure

N[C@@H](Cc1c[nH]cn1)C(=O)O [L-His, L-histidine, reference compound]
IC50 [1]: 22 ± 4 µM
ATP-PRT activity at saturating L-His ([1]; 400 µM L-His (20-fold K i)): fully inhibited
Ki ([1]; L-His inhibition vs ATP, [TIH] 0 mM, read-out: K i,ATP): 20 ± 1 µM
Ki ([1]; linear noncompetitive inhibition vs. PRPP, no TIH, read-out: K i,PRPP): 16 ± 1 µM
Drift time of main ATP-PRT form ([2]; pH 6.8, charge state +28): 44.1 ms
Drift time of main ATP-PRT form ([2]; pH 9.0, charge state +28): 44.2 ms
Competition STD NMR outcome [3]: displacement of TIH by L-His
Hill number (n H) for L-His inhibition [4]: 1.5

O=P(O)(O)OC[C@H]1O[C@H](OP(=O)(O)OP(=O)(O)O)[C@H](O)[C@@H]1O [PRPP, 5-phospho-α-D-ribose 1-diphosphate]
K m,PRPP ([1]; activation experiment, unactivated reaction, varying PRPP): 190 ± 30 µM

Nc1ncnc2c1ncn2[C@@H]1O[C@H](COP(=O)(O)OP(=O)(O)OP(=O)(O)O)[C@@H](O)[C@H]1O [ATP]
K m,ATP ([1]; [TIH] 0 mM, L-His inhibition pattern): 230 ± 30 µM
K m,ATP ([1]; [TIH] 0.25 mM, L-His inhibition pattern): 200 ± 20 µM
K m,ATP ([1]; [TIH] 0.8 mM, L-His inhibition pattern): 180 ± 20 µM
K m,ATP ([1]; [TIH] 4 mM, L-His inhibition pattern): 160 ± 20 µM
K m,ATP ([1]; activation experiment, unactivated reaction, varying ATP): 100 ± 10 µM

N[C@@H](Cc1cccs1)C(=O)O [TIH, 3-(2-thienyl)-L-alanine]
ATP-PRT activity restored ([1]; 400 µM L-His plus close to 4 mM TIH): 100%
V max ([1]; [TIH] 0.25 mM, L-His inhibition pattern, varying ATP): 0.28 ± 0.01 s⁻¹
V max ([1]; [TIH] 0.8 mM, L-His inhibition pattern, varying ATP): 0.38 ± 0.01 s⁻¹
V max ([1]; [TIH] 4 mM, L-His inhibition pattern, varying ATP): 0.76 ± 0.01 s⁻¹
Emax ([1]; read-out: ATP-PRT activity increased up to (maximal activation)): ≤ 433%
αATP ([1]; varying ATP, Eq. 4): 1.4 ± 0.2
βATP ([1]; varying ATP, Eq. 4): 4.9 ± 0.2
α (PRPP) ([1]; varying PRPP, Eq. 4): 1.1 ± 0.4
β (PRPP) ([1]; varying PRPP, Eq. 4): 4.9 ± 0.5
Drift time of main ATP-PRT form ([2]; pH 6.8, charge state +28): 44.2 ms
Drift time of main ATP-PRT form ([2]; pH 9.0, charge state +28): 44.1 ms

B1: Mycobacterium tuberculosis ATP-phosphoribosyltransferase (enzyme)
chain: MLRVAVPNKGALSEPATEILAEAGYRRRTDSKDLTVIDPVNNVEFFFLRPKDIAIYVGSGELDFGITGRDLVCDSGAQVRERLALGFGSSSFRYAAPAGRNWTTADLAGMRIATAYPNLVRKDLATKGIEATVIRLDGAVEISVQLGVADAIADVVGSGRTLSQHDLVAFGEPLCDSEAVLIERAGTDGQDQTEARDQLVARVQGVVFGQQYLMLDYDCPRSALKKATAITPGLESPTIAPLADPDWVAIRALVPRRDVNGIMDELAAIGAKAILASDIRFCRF
notes: also called ATP-PRT; HisG
stoichiometry N [5]: 6
